Data from patent US20200199692A1, “LACTIC BACTERIA AND THE USE THEREOF FOR THE PREVENTIVE, INHIBITORY AND/OR REDUCTIVE TREATMENT OF THE FORMATION OF BACTERIAL BIOFILMS” (PROBIOTICAL S.P.A., priority 2016, published 2020).
Converted amounts (≈) assume the structure as drawn. Like-named read-outs stand apart in the source and are kept apart here.

What was measured:
[1] = tested on: Commercial Bifidobacterium; experiment: Antibiotic resistance profile (E-test, ABBiodisk); type: cell-based
Commercial Lactobacillus = experiment: Antibiotic resistance profile (E-test, ABBiodisk); type: cell-based
[2] = tested on: Lactobacillus paracasei LMC-4 ID 1953 DSM 32254; experiment: Antibiotic resistance profile (E-test, ABBiodisk); type: cell-based
[3] = tested on: Lactobacillus plantarum LMC-1 ID 1952 DSM 32252; experiment: Antibiotic resistance profile (E-test, ABBiodisk); type: cell-based
[4] = tested on: Lactobacillus paracasei LMC-8 ID 1954 DSM 32258; experiment: Antibiotic resistance profile (E-test, ABBiodisk); type: cell-based
Lactobacillus paracasei = settings: Tables 8 and 12 (L. paracasei); Linezolid from EFSA 2005, Quinupristin/Dalfopristin from EFSA 2008; cited from earlier work
Lactobacillus plantarum = settings: Table 4 (L. plantarum); Linezolid from EFSA 2005, Quinupristin/Dalfopristin from EFSA 2008; cited from earlier work
[5] = Etest strips in agar, Commercial Bifidobacterium reference strain, read-out: MIC
[6] = Etest strips in agar, Commercial Lactobacillus reference strain, read-out: MIC
[7] = Lacticaseibacillus paracasei, DSM32254, Etest strips in agar, strain Lactobacillus paracasei LMC-4 ID 1953 DSM 32254, read-out: MIC
[8] = Lactiplantibacillus plantarum, DSM32252, Etest strips in agar, strain Lactobacillus plantarum LMC-1 ID 1952 DSM 32252, read-out: MIC
[9] = Lacticaseibacillus paracasei, DSM32258, Etest strips in agar, strain Lactobacillus paracasei LMC-8 ID 1954 DSM 32258, read-out: MIC
[10] = Etest strips in agar, Commercial Bifidobacterium reference strain
[11] = Etest strips in agar, Commercial Lactobacillus reference strain
[12] = Etest strips in agar, strain Lactobacillus paracasei LMC-4 ID 1953 DSM 32254
[13] = Etest strips in agar, strain Lactobacillus plantarum LMC-1 ID 1952 DSM 32252
[14] = Etest strips in agar, strain Lactobacillus paracasei LMC-8 ID 1954 DSM 32258
[15] = Lacticaseibacillus paracasei, DSM32254
[16] = Lacticaseibacillus paracasei, DSM32258

Compound	MIC [1, 5] [µg/mL]	MIC (Commercial Lactobacillus; [6]) [µg/mL]	MIC [2, 7] [µg/mL]	MIC [3, 8] [µg/mL]	MIC [4, 9] [µg/mL]	EFSA Limit 2012 (Lactobacillus paracasei) [µg/mL]	EFSA Limit 2012 (Lactobacillus plantarum) [µg/mL]	other results
CC1(C)S[C@@H]2[C@H](NC(=O)[C@H](N)c3ccc(O)cc3)C(=O)N2[C@H]1C(=O)O [Amoxicillin]	0.064 (≈ 0.175 µM)	0.5 (≈ 1.37 µM)	0.25 (≈ 0.684 µM)	0.19 (≈ 0.52 µM)	0.5 (≈ 1.37 µM)	–	–	–
CC1(C)S[C@@H]2[C@H](NC(=O)[C@H](N)c3ccccc3)C(=O)N2[C@H]1C(=O)O [Ampicillin]	0.016 (≈ 0.0458 µM)	0.5 (≈ 1.43 µM)	0.094 (≈ 0.269 µM)	0.032 (≈ 0.0916 µM)	0.38 (≈ 1.09 µM)	4	2	–
CC[C@H]1OC(=O)[C@H](C)[C@@H](O[C@H]2C[C@@](C)(OC)[C@@H](O)[C@H](C)O2)[C@H](C)[C@@H](O[C@@H]2O[C@H](C)C[C@H](N(C)C)[C@H]2O)[C@](C)(O)C[C@@H](C)CN(C)[C@H](C)[C@@H](O)[C@]1(C)O [Azithromycin]	0.75 (≈ 1 µM)	0.38 (≈ 0.507 µM)	0.5 (≈ 0.668 µM)	2 (≈ 2.67 µM)	0.75 (≈ 1 µM)	–	–	–
CO[C@@]1(NC(=O)Cc2cccs2)C(=O)N2C(C(=O)O)=C(COC(N)=O)CS[C@@H]21 [Cefoxitin]	1 (≈ 2.34 µM)	> 256	> 256	64 (≈ 150 µM)	> 256	–	–	–
CO/N=C(\C(=O)N[C@@H]1C(=O)N2C(C(=O)O)=C(COC(N)=O)CS[C@H]12)c1ccco1 [Cefuroxime]	0.25 (≈ 0.589 µM)	1.5 (≈ 3.53 µM)	0.75 (≈ 1.77 µM)	0.064 (≈ 0.151 µM)	1 (≈ 2.36 µM)	–	–	–
O=C(O)c1cn(C2CC2)c2cc(N3CCNCC3)c(F)cc2c1=O [Ciprofloxacin]	4 (≈ 12.1 µM)	1 (≈ 3.02 µM)	0.75 (≈ 2.26 µM)	> 32	1 (≈ 3.02 µM)	–	–	–
CC[C@H]1OC(=O)[C@H](C)[C@@H](O[C@H]2C[C@@](C)(OC)[C@@H](O)[C@H](C)O2)[C@H](C)[C@@H](O[C@@H]2O[C@H](C)C[C@H](N(C)C)[C@H]2O)[C@](C)(OC)C[C@@H](C)C(=O)[C@H](C)[C@@H](O)[C@]1(C)O [Clarithromycin]	0.032 (≈ 0.0428 µM)	0.047 (≈ 0.0628 µM)	0.047 (≈ 0.0628 µM)	0.25 (≈ 0.334 µM)	0.094 (≈ 0.126 µM)	–	–	–
CCC[C@@H]1C[C@@H](C(=O)N[C@@H]([C@H]2O[C@H](SC)[C@H](O)[C@@H](O)[C@H]2O)[C@H](C)Cl)N(C)C1 [Clindamycin]	0.047 (≈ 0.111 µM)	0.5 (≈ 1.18 µM)	0.064 (≈ 0.151 µM)	2 (≈ 4.71 µM)	0.094 (≈ 0.221 µM)	–	–	–
O=C(N[C@H](CO)[C@H](O)c1ccc([N+](=O)[O-])cc1)C(Cl)Cl [Cloramphenicol]	–	–	–	–	–	4	8	MIC [1, 10]: 0.75 µg/mL (≈ 2.32 µM); MIC (Commercial Lactobacillus; [11]): 3 µg/mL (≈ 9.28 µM); MIC [2, 12]: 1.5 µg/mL (≈ 4.64 µM); MIC [3, 13]: 2 µg/mL (≈ 6.19 µM); MIC [4, 14]: 2.0 µg/mL (≈ 6.19 µM)
CC[C@H]1OC(=O)[C@H](C)[C@@H](O[C@H]2C[C@@](C)(OC)[C@@H](O)[C@H](C)O2)[C@H](C)[C@@H](O[C@@H]2O[C@H](C)C[C@H](N(C)C)[C@H]2O)[C@](C)(O)C[C@@H](C)C(=O)[C@H](C)[C@@H](O)[C@]1(C)O [Erythromycin]	0.094 (≈ 0.128 µM)	0.032 (≈ 0.0436 µM)	–	0.75 (≈ 1.02 µM)	–	1	1	MIC [2, 15]: 0.125 µg/mL (≈ 0.17 µM); MIC [4, 16]: 0.125 µg/mL (≈ 0.17 µM)
C[C@@H](O)[C@H]1C(=O)N2C(C(=O)O)=C(SCCN=CN)C[C@H]12 [Imipenem]	0.25 (≈ 0.835 µM)	2 (≈ 6.68 µM)	1.5 (≈ 5.01 µM)	0.047 (≈ 0.157 µM)	0.75 (≈ 2.51 µM)	–	–	–
NC[C@H]1O[C@H](O[C@H]2[C@H](O)[C@@H](O[C@H]3O[C@H](CO)[C@@H](O)[C@H](N)[C@H]3O)[C@H](N)C[C@@H]2N)[C@H](O)[C@@H](O)[C@@H]1O [Kanamycin]	–	128 (≈ 264 µM)	24 (≈ 49.5 µM)	64 (≈ 132 µM)	64 (≈ 132 µM)	–	–	–
CC(=O)NC[C@H]1CN(c2ccc(N3CCOCC3)c(F)c2)C(=O)O1 [Linezolid]	0.38 (≈ 1.13 µM)	2 (≈ 5.93 µM)	0.38 (≈ 1.13 µM)	1.5 (≈ 4.45 µM)	1.5 (≈ 4.45 µM)	4	4	–
CO[C@H]1/C=C/O[C@@]2(C)Oc3c(C)c(O)c4c(O)c(c(/C=N/N5CCN(C)CC5)c(O)c4c3C2=O)NC(=O)/C(C)=C\C=C\[C@H](C)[C@H](O)[C@@H](C)[C@@H](O)[C@@H](C)[C@H](OC(C)=O)[C@@H]1C [Rifampicin]	0.094 (≈ 0.114 µM)	0.094 (≈ 0.114 µM)	0.016 (≈ 0.0194 µM)	0.25 (≈ 0.304 µM)	0.032 (≈ 0.0389 µM)	–	–	–
[H]/N=C(/N)N[C@H]1[C@H](O)[C@@H](O)[C@H](O[C@@H]2O[C@@H](C)[C@](O)(C=O)[C@H]2O[C@@H]2O[C@@H](CO)[C@H](O)[C@@H](O)[C@@H]2NC)[C@@H](N/C(N)=N\[H])[C@@H]1O [Streptomycin]	64 (≈ 110 µM)	12 (≈ 20.6 µM)	12 (≈ 20.6 µM)	16 (≈ 27.5 µM)	24 (≈ 41.3 µM)	64	–	–
CN(C)[C@@H]1C(O)=C(C(N)=O)C(=O)[C@@]2(O)C(O)=C3C(=O)c4c(O)cccc4[C@@](C)(O)[C@H]3C[C@@H]12 [Tetracycline]	8 (≈ 18 µM)	0.5 (≈ 1.13 µM)	0.19 (≈ 0.428 µM)	12 (≈ 27 µM)	0.38 (≈ 0.855 µM)	–	–	–
CN[C@H](CC(C)C)C(=O)N[C@H]1C(=O)N[C@@H](CC(N)=O)C(=O)N[C@H]2C(=O)N[C@H]3C(=O)N[C@H](C(=O)N[C@H](C(=O)O)c4cc(O)cc(O)c4-c4cc3ccc4O)[C@H](O)c3ccc(c(Cl)c3)Oc3cc2cc(c3O[C@@H]2O[C@H](CO)[C@@H](O)[C@H](O)[C@H]2O[C@H]2C[C@](C)(N)[C@H](O)[C@H](C)O2)Oc2ccc(cc2Cl)[C@H]1O [Vancomycin]	–	–	–	–	–	–	–	MIC ([1]; Bifidobacterium): 0.38 µg/mL (≈ 0.262 µM); MIC (Commercial Lactobacillus; Lactobacillus): > 256 µg/mL; MIC [2, 15]: > 256 µg/mL; MIC ([3]; Lactiplantibacillus plantarum, DSM32252): > 256 µg/mL; MIC [4, 16]: > 256 µg/mL
Gentamicin	–	–	–	–	–	32	16	MIC [1, 10]: 48 µg/mL; MIC (Commercial Lactobacillus; [11]): 6 µg/mL; MIC [2, 12]: 2 µg/mL; MIC [3, 13]: 4 µg/mL; MIC [4, 14]: 4 µg/mL
Quinupristin/Dalfopristin	–	–	–	–	–	4	4	MIC [1, 10]: 0.25 µg/mL; MIC (Commercial Lactobacillus; [11]): 1 µg/mL; MIC [2, 12]: 0.094 µg/mL; MIC [3, 13]: 0.38 µg/mL; MIC [4, 14]: 0.25 µg/mL
